Laboratory results from PMC4393105, “tRNA^Glu Increases the Affinity of Glutamyl-tRNA Synthetase for Its Inhibitor Glutamyl-Sulfamoyl-Adenosine, an Analogue of the Aminoacylation Reaction Intermediate Glutamyl-AMP: Mechanistic and Evolutionary Implications” (PLoS ONE, 2015).
“And” between values parts separate entries of the source, which are not always exact repeats. Equal entries are not always repeated.

What was measured:
[1] = system: Escherichia coli glutamyl-tRNA synthetase (GluRS); set-up: method as in PMID 15895686; conditions: competitive inhibitor; cited from earlier work
[2] = biological target: T1, E. coli GluRS + S. cerevisiae tRNA^Phe (Escherichia coli, UniProt P04805); experiment: Isothermal titration microcalorimetry of Glu-AMS binding to GluRS in the presence of non-cognate tRNA^Phe; conditions: for Kd: Kd (dissociation constant), Kd = 1/Kb
T1 construct: His tag (histidine tag) (C); made in house
Experimental: (§1) Overproduction and purification of E. coli GluRS were performed as previously described with the following modifications. A C-terminal histidine-tagged GluRS was used instead of the N-terminal tagged one. The overproduction was induced overnight at 30°C with 1 mM IPTG.
Overproduction and purification of E. coli tRNA^Glu-enriched total tRNA was done as described. […] Saccharomyces cerevisiae tRNA^Phe, used as a negative control, was purchased from Sigma-Aldrich (cat No: R4018).
(§2) The GluRS solution with or without tRNA was dialyzed overnight in a D-tube dialyzer (Novagen) against 2 L of dialysis buffer (50 mM HEPES-KOH, pH 7.2, 10 mM MgCl2) at 4°C with light stirring. The next morning, the dialyzed solution was recovered and the volume adjusted by adding dialysis buffer to obtain the desired concentration (typically 9 μM GluRS and 11 μM tRNA^Glu). This solution was kept on ice until use. Glu-AMS was diluted in the dialysis buffer to obtain a final concentration of 90 μM. All buffers and solutions were degased with stirring under vacuum. The microcalorimetry experiments were carried out in a VP-ITC 100 microcalorimeter (MicroCal, GE Healthcare) using deionized water as an internal reference for all assays. VPViewer ITC 2000 and Origin v 5.0 softwares (Microcal Software, Inc) were used for data collection and analysis, respectively.
(§3) To measure the thermodynamic parameters of the interaction between Glu-AMS and GluRS, in the presence and in the absence of tRNA, a solution containing 9 μM GluRS with or without a stoichiometric excess of tRNA^Glu or S. cerevisiae tRNA^Phe (Table 1) was placed in the sample cell of the microcalorimeter. The following conditions were used for all tests: reference power was set at 12 μcal/s and stirring at 300 rpm, the “high” feedback mode and “No check Temp”, “Fast Equil” and “Auto” ITC equilibration options were selected. The 90 μM Glu-AMS solution was loaded in the injection syringe. After a first injection of 1 μL over 2 s, a series of 39 injections (7.4 μL over 14.8 s) with 240 s between injections was performed. Injections of Glu-AMS in GluRS alone, GluRS•tRNA^Glu or GluRS•tRNA^Phe, were performed at 30°C (303 K), and done in duplicate. Injections of Glu-AMS in GluRS were also performed at 20°C and 37°C (293 and 310 K): 14 injections (20 μL over 40 s) followed the first injection of 1 μL. Each temperature was tested in duplicate, and in triplicate at 37°C.
(§4) The following nomenclature was used to describe the interaction at equilibrium between Glu-AMS and either GluRS or a GluRS•tRNA complex: GluRS•Glu-AMS↔GluRS+[…] Kd=[GluRS]×[Glu-AMS]/[GluRS•Glu-AMS] 1/Kd=Kb (binding constant, sometimes referred to as Ka).

[3] = system: murine hepatic GluRS; set-up: method as in PMID 15895686; conditions: cited from earlier work
[4] = biological target: T2, E. coli GluRS (Escherichia coli, UniProt P04805); experiment: Isothermal titration microcalorimetry of Glu-AMS binding to GluRS in the absence of tRNA; conditions: no tRNA; for Kd: Kd (dissociation constant), Kd = 1/Kb
T2 construct: His tag (histidine tag) (C); made in house
Experimental: as §1, §2, §3, §4

[5] = single ITC run, tRNA^Phe 11.23 µM, 303 K, [ligand] 90 µM, [GluRS] 2.198 µM
[6] = single ITC run, tRNA^Phe 11.23 µM, 303 K, [ligand] 90 µM, [GluRS] 2.434 µM
[7] = with S. cerevisiae tRNA^Phe, 30°C, weighted mean of ITC runs
[8] = single ITC run, 293 K, [ligand] 90 µM, [GluRS] 4.15 µM
[9] = single ITC run, 293 K, [ligand] 90 µM, [GluRS] 4.35 µM
[10] = single ITC run, 303 K, [ligand] 90 µM, [GluRS] 4.143 µM
[11] = single ITC run, 303 K, [ligand] 90 µM, [GluRS] 5.355 µM
[12] = single ITC run, 310 K, [ligand] 90 µM, [GluRS] 3.169 µM
[13] = single ITC run, 310 K, [ligand] 90 µM, [GluRS] 3.931 µM
[14] = single ITC run, 310 K, [ligand] 90 µM, [GluRS] 4.015 µM
[15] = 30°C (303 K), weighted mean of ITC runs

T1 sequence (P04805 whole entry): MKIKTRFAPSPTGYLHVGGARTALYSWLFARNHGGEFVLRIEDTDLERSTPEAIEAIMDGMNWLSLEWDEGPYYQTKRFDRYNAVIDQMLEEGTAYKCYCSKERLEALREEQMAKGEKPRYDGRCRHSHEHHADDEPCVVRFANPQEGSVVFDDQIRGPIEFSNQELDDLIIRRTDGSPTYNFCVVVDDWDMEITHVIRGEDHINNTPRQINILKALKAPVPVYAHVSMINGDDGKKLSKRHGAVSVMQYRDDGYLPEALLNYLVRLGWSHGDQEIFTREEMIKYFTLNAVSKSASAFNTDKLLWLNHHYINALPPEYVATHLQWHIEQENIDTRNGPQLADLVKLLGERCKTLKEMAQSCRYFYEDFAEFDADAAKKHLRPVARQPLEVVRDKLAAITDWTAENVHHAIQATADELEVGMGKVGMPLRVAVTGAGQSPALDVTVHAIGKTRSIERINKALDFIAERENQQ
T2 sequence (P04805 whole entry): as above

Nc1ncnc2c1ncn2[C@@H]1O[C@H](COS(=O)(=O)NC(=O)[C@@H](N)CCC(=O)O)[C@@H](O)[C@H]1O [Glu-AMS, 5’-O-[N-(L-glutamyl)sulfamoyl]adenosine]
Ki [1]: 0.0028 µM | Kd [2, 5]: 0.478 ± 0.086 µM | Kd [2, 6]: 0.987 ± 0.19 µM | -TΔSb [2, 5]: -3875 ± 242 | n (stoichiometry coefficient) [2, 5]: 0.9925 ± 0.048 | ΔGb (reaction energy) [2, 5]: -36.66 kJ/mol | ΔHb (reaction enthalpy) [2, 5]: -20.43 ± 1.28 kJ/mol | ΔSb (reaction entropy) [2, 5]: 12.79 ± 0.80 cal/mol·K | -TΔSb [2, 6]: -1658 ± 172 | n (stoichiometry coefficient) [2, 6]: 0.9835 ± 0.0809 | ΔGb (reaction energy) [2, 6]: -34.84 kJ/mol | ΔHb (reaction enthalpy) [2, 6]: -27.85 ± 2.88 kJ/mol | ΔSb (reaction entropy) [2, 6]: 5.472 ± 0.57 cal/mol·K | affinity of GluRS for Glu-AMS in the presence of the non-cognate tRNA^Phe ([2]; versus absence of tRNA): not altered | ΔGb (reaction energy) ([2]; with S. cerevisiae tRNA^Phe, 30°C, simple average, ΔGb = -RT Ln Kb): -35.75 ± 1.29 kJ/mol | -TΔSb [2, 7]: -10.03 ± 0.586 kJ/mol | n (stoichiometry coefficient) [2, 7]: 0.9902 ± 0.0410 | ΔHb (reaction enthalpy) [2, 7]: -21.64 ± 1.17 kJ/mol | ΔSb (reaction entropy) [2, 7]: 7.92 ± 0.46 cal/mol·K | times less efficient against murine hepatic GluRS than against E. coli GluRS [3]: 25 times | Kd [4, 8]: 0.545 ± 0.162 µM | Kd [4, 9]: 0.547 ± 0.15 µM | Kd [4, 10]: 0.281 ± 0.039 µM | Kd [4, 11]: 0.307 ± 0.028 µM | Kd [4, 12]: 0.256 ± 0.02 µM | Kd [4, 13]: 0.318 ± 0.082 µM | Kd [4, 14]: 0.231 ± 0.037 µM | -TΔSb [4, 15]: -16.72 ± 0.209 kJ/mol | n (stoichiometry coefficient) [4, 15]: 0.9998 ± 0.0094 | ΔHb (reaction enthalpy) [4, 15]: -21.09 ± 0.264 kJ/mol | ΔSb (reaction entropy) [4, 15]: 13.2 cal/mol·K and 13.19 ± 0.16 cal/mol·K | -TΔSb ([4]; 293 K, mean of ITC runs): -18.74 ± 0.912 kJ/mol | n (stoichiometry coefficient) ([4]; 293 K, mean of ITC runs): 1.0097 ± 0.0369 | ΔHb (reaction enthalpy) ([4]; 293 K, mean of ITC runs): -16.44 ± 0.799 kJ/mol | ΔSb (reaction entropy) ([4]; 293 K, mean of ITC runs): 15.29 ± 0.74 cal/mol·K | ΔGb (reaction energy) ([4]; 293 K, mean of ITC runs, ΔGb = -RT Ln Kb): -35.13 ± 0.00669 kJ/mol | -TΔSb ([4]; 310 K, mean of ITC runs): -11.86 ± 0.151 kJ/mol | n (stoichiometry coefficient) ([4]; 310 K, mean of ITC runs): 1.0016 ± 0.0095 | ΔHb (reaction enthalpy) ([4]; 310 K, mean of ITC runs): -26.76 ± 0.339 kJ/mol | ΔSb (reaction entropy) ([4]; 310 K, mean of ITC runs): 9.146 ± 0.117 cal/mol·K | ΔGb (reaction energy) ([4]; 310 K, mean of ITC runs, ΔGb = -RT Ln Kb): -39.02 ± 0.418 kJ/mol | change in heat capacity (ΔCp) ([4]; from ΔHb at 293, 303 and 310 K): -143 ± 23 cal/mol·K | -TΔSb [4, 8]: -4495 ± 320 | n (stoichiometry coefficient) [4, 8]: 1.014 ± 0.054 | ΔGb (reaction energy) [4, 8]: -35.13 kJ/mol | ΔHb (reaction enthalpy) [4, 8]: -16.36 ± 1.17 kJ/mol | ΔSb (reaction entropy) [4, 8]: 15.34 ± 1.09 cal/mol·K | -TΔSb [4, 9]: -4465 ± 297 | n (stoichiometry coefficient) [4, 9]: 1.006 ± 0.050 | ΔGb (reaction energy) [4, 9]: -35.12 kJ/mol | ΔHb (reaction enthalpy) [4, 9]: -16.51 ± 1.1 kJ/mol | ΔSb (reaction entropy) [4, 9]: 15.24 ± 1.01 cal/mol·K | -TΔSb [4, 10]: -3936 ± 97 | n (stoichiometry coefficient) [4, 10]: 0.9963 ± 0.0184 | ΔGb (reaction energy) [4, 10]: -38 kJ/mol | ΔHb (reaction enthalpy) [4, 10]: -21.51 ± 0.531 kJ/mol | ΔSb (reaction entropy) [4, 10]: 12.99 ± 0.32 cal/mol·K | -TΔSb [4, 11]: -4018 ± 58 | n (stoichiometry coefficient) [4, 11]: 1.001 ± 0.011 | ΔGb (reaction energy) [4, 11]: -37.78 kJ/mol | ΔHb (reaction enthalpy) [4, 11]: -20.95 ± 0.305 kJ/mol | ΔSb (reaction entropy) [4, 11]: 13.26 ± 0.19 cal/mol·K | -TΔSb [4, 12]: -2680 ± 41 | n (stoichiometry coefficient) [4, 12]: 0.9997 ± 0.0114 | ΔGb (reaction energy) [4, 12]: -39.12 kJ/mol | ΔHb (reaction enthalpy) [4, 12]: -27.84 ± 0.427 kJ/mol | ΔSb (reaction entropy) [4, 12]: 8.646 ± 0.132 cal/mol·K | -TΔSb [4, 13]: -2978 ± 147 | n (stoichiometry coefficient) [4, 13]: 1.005 ± 0.037 | ΔGb (reaction energy) [4, 13]: -38.56 kJ/mol | ΔHb (reaction enthalpy) [4, 13]: -26.05 ± 1.28 kJ/mol | ΔSb (reaction entropy) [4, 13]: 9.607 ± 0.473 cal/mol·K | -TΔSb [4, 14]: -3531 ± 90 | n (stoichiometry coefficient) [4, 14]: 1.006 ± 0.019 | ΔGb (reaction energy) [4, 14]: -39.38 kJ/mol | ΔHb (reaction enthalpy) [4, 14]: -24.57 ± 0.628 kJ/mol | ΔSb (reaction entropy) [4, 14]: 11.39 ± 0.29 cal/mol·K
